# Measured values taken from US12357603B2, “Acyl sulfonamides for treating cancer” (Bayer Aktiengesellschaft, priority 2019, dated 2025).
# Tests used:
# [1] = system: ESR1 transcription (luciferase signal in MVLN cells); assay: Repression of ESR1 transcription, luciferase reporter in MVLN cells; assay type: cell-based; details: Homo sapiens, MVLN, inhibition of luciferase signal in MVLN cells; arithmetic mean
# Method in brief: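 Luminescence from an ER-driven Vitellogenin A2 element–luciferase reporter was measured after 24 h of treatment of MVLN cells, in duplicate wells. Alamar Blue (2 h, 530/590 nm) served as a cell-density control.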
# [2] = target: Recombinant human His-tagged Kat6a protein (amino acids 194-810) (Homo sapiens (Human), UniProt Q92794); assay: Kat6a activity assay (TR-FRET, acetylation of biotinylated Histone-H4-derived peptide); assay type: biochemical; details: 60 mins at 22° C., read-out: KAT6A-DPF/HAT domain IC50 [mol/l] (arithmetic mean)
# Method in brief: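 TR-FRET read-out of H4 K8 acetylation, using anti-acetyl-K8 antibody and streptavidin acceptor, after anacardic acid stop; IC50 from four-parameter regression normalized to DMSO. Reaction: recombinant human Kat6a aa 194-810 (insect-cell derived), 220 nM H4 1-24 peptide, 600 nM acetyl-CoA, pH 8, 22 °C, 60 min, compounds 0.01-20 μM.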
# ZR-75-1 cells = assay: Proliferation assay ZR-75-1 (Alamar Blue, 144 h); assay type: cell-based; details: Homo sapiens, ZR-75-1, 144 h, arithmetic mean, read-out: ZR75-1 proliferation assay, EC50 [M] (arithmetic mean)
# Method in brief: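 Alamar Blue fluorescence (590 nm, 2 h reagent step) measured viability after 144 h compound exposure at 37 °C, 5% CO2. Compounds spanned 2.0×10E-5 to 2.0×10E-9 M in 9 dilutions at 0.2% DMSO, in triplicate, added 24 h after plating 3000 cells/well in RPMI 1640 plus 2.5% FBS.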
# MDA-MB-436 cells = assay: Proliferation assay MDA-MB-436, negative control cell line (Alamar Blue, 144 h); assay type: cell-based; details: Homo sapiens, MDA-MB-436, 144 h, arithmetic mean
# Method in brief: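 Viability read as Alamar Blue fluorescence (590 nm, 2 h) after 144 h compound exposure at 37 °C, 5% CO2. Cells seeded at 3000 per well in 2.5% FBS DMEM/Ham's F12, dosed a day later over 2.0×10E-9–2.0×10E-5 M in 9 steps with 0.2% DMSO, in triplicate.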
# [3] = target: Recombinant human GST-tagged Kat6b protein (431-end); assay: Kat6b activity assay (TR-FRET, acetylation of biotinylated Histone-H4-derived peptide); assay type: biochemical; details: 30 mins at 22° C., read-out: KAT6B activity assay IC50 [mol/l] (arithmetic mean)
# Recombinant human His-tagged Kat6a protein (amino acids 194-810), sequence (Q92794 194-810): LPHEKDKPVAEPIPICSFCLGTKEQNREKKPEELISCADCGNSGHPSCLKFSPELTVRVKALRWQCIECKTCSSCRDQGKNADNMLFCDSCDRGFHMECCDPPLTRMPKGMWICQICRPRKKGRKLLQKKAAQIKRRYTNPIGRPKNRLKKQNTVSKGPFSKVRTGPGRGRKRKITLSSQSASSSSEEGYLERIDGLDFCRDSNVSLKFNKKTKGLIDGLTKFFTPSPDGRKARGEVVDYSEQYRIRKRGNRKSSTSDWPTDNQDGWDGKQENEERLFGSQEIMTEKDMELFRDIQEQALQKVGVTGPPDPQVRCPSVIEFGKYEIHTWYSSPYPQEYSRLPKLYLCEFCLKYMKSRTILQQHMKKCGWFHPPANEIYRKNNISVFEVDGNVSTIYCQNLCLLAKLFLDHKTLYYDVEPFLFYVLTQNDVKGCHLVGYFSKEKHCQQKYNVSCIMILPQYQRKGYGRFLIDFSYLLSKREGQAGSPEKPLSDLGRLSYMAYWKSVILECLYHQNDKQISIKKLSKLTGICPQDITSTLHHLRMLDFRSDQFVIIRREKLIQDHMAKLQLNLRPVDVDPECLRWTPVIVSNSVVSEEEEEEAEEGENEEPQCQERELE
IC50 [1] [nM],IC50 [2] [nM],EC50 (MDA-MB-436 cells) [µM],IC50 [3] [nM],SMILES,EC50 (ZR-75-1 cells) [M]
15.4,8.93,> 20,19,"CCCOc1ccccc1S(=O)(=O)NC(=O)c1cc2c(F)cc(N(C)C)cc2o1 [Example 111, 6-(Dimethylamino)-4-fluoro-N-(2-propoxybenzene-1-sulfonyl)-1-benzofuran-2-carboxamide]",4.89e-08
45.2,17.7,> 20,18.1,"COc1ccccc1S(=O)(=O)NC(=O)c1cc2c(F)cc(N(C)C)cc2o1 [Example 112, 6-(Dimethylamino)-4-fluoro-N-(2-methoxybenzene-1-sulfonyl)-1-benzofuran-2-carboxamide]",4.78e-08
70.3,7.25,> 20,7.24,"CCOc1ccc(Br)cc1S(=O)(=O)NC(=O)c1cc2c(F)cc(N(C)C)cc2o1 [Example 113, N-(5-Bromo-2-ethoxybenzene-1-sulfonyl)-6-(dimethylamino)-4-fluoro-1-benzofuran-2-carboxamide]",1.02e-07
58,114,> 20,150,"COc1ccccc1S(=O)(=O)NC(=O)c1cc2ccc(N(C)C)cc2o1 [Example 114, 6-(Dimethylamino)-N-(2-methoxybenzene-1-sulfonyl)-1-benzofuran-2-carboxamide]",1.07e-07
64.2,64.6,> 20,87.2,"CCCOc1ccc(C)cc1S(=O)(=O)NC(=O)c1cc2ccc(N(C)C)cc2o1 [Example 115, 6-(Dimethylamino)-N-(5-methyl-2-propoxybenzene-1-sulfonyl)-1-benzofuran-2-carboxamide]",7.02e-08
270,453,> 20,508,"CCOc1cccc(C)c1S(=O)(=O)NC(=O)c1cc2ccc(N(C)C)cc2o1 [Example 116, 6-(Dimethylamino)-N-(2-ethoxy-6-methylbenzene-1-sulfonyl)-1-benzofuran-2-carboxamide]",3.24e-07
276,294,> 20,342,"CN(C)c1ccc2cc(C(=O)NS(=O)(=O)c3ccccc3OCCNC(=O)OC(C)(C)C)oc2c1 [Example 117, tert-butyl [2-(2-{[6-(dimethylamino)-1-benzofuran-2-carbonyl]sulfamoyl}phenoxy)ethyl]carbamate]",6.03e-07
218,185,> 20,374,"CCCOc1cccc(CC)c1S(=O)(=O)NC(=O)c1cc2ccc(N(C)C)cc2o1 [Example 119, 6-(Dimethylamino)-N-(2-ethyl-6-propoxybenzene-1-sulfonyl)-1-benzofuran-2-carboxamide]",6.98e-07
275,179,> 20,227,"CCOc1cccc(Br)c1S(=O)(=O)NC(=O)c1cc2ccc(N(C)C)cc2o1 [Example 121, N-(2-Bromo-6-ethoxybenzene-1-sulfonyl)-6-(dimethylamino)-1-benzofuran-2-carboxamide]",3.56e-07
179,275,> 20,257,"CCOc1cccc(F)c1S(=O)(=O)NC(=O)c1cc2ccc(N(C)C)cc2o1 [Example 123, 6-(Dimethylamino)-N-(2-ethoxy-6-fluorobenzene-1-sulfonyl)-1-benzofuran-2-carboxamide]",1.19e-07
30.6,20.5,> 20,23.8,"CN(C)c1ccc2cc(C(=O)NS(=O)(=O)c3cccc4ccc(Cl)nc34)oc2c1 [Example 126, N-(2-Chloroquinoline-8-sulfonyl)-6-(dimethylamino)-1-benzofuran-2-carboxamide]",6.98e-08
28.6,13.5,> 20,16.8,"CCOc1ccc(C(C)C)cc1S(=O)(=O)NC(=O)c1cc2ccc(N(C)C)cc2o1 [Example 129, 6-(Dimethylamino)-N-[2-ethoxy-5-(propan-2-yl)benzene-1-sulfonyl]-1-benzofuran-2-carboxamide]",6.17e-07
80.1,134,> 20,72.7,"COc1cccc(C(F)(F)F)c1S(=O)(=O)NC(=O)c1cc2ccc(N(C)C)cc2o1 [Example 132, 6-(Dimethylamino)-N-[2-methoxy-6-(trifluoromethyl)benzene-1-sulfonyl]-1-benzofuran-2-carboxamide]",1.05e-07
5500,81.5,> 20,107,"CN(C)c1ccc2cc(C(=O)NS(=O)(=O)c3cc(Cl)c(Cl)cc3OC(F)(F)F)oc2c1 [Example 137, N-[4,5-Dichloro-2-(trifluoromethoxy)benzene-1-sulfonyl]-6-(dimethylamino)-1-benzofuran-2-carboxamide]",5.61e-06
216,56.7,> 20,79.5,"COc1cc(C)c(Cl)cc1S(=O)(=O)NC(=O)c1cc2ccc(N(C)C)cc2o1 [Example 138, N-(5-Chloro-2-methoxy-4-methylbenzene-1-sulfonyl)-6-(dimethylamino)-1-benzofuran-2-carboxamide]",5.01e-07
1370,329,> 20,369,"COc1ccc(Cl)c(S(=O)(=O)NC(=O)c2cc3ccc(N(C)C)cc3o2)c1 [Example 139, N-(2-Chloro-5-methoxybenzene-1-sulfonyl)-6-(dimethylamino)-1-benzofuran-2-carboxamide]",7.07e-07
166,139,> 20,229,"CN(C)c1ccc2cc(C(=O)NS(=O)(=O)c3c(F)cccc3OC3CCC3)oc2c1 [Example 142, N-[2-(Cyclobutyloxy)-6-fluorobenzene-1-sulfonyl]-6-(dimethylamino)-1-benzofuran-2-carboxamide]",4.37e-07
40.8,29.3,> 20,43.1,"CCOc1ccc(CC)cc1S(=O)(=O)NC(=O)c1cc2ccc(N(C)C)cc2o1 [Example 143, 6-(Dimethylamino)-N-(2-ethoxy-5-ethylbenzene-1-sulfonyl)-1-benzofuran-2-carboxamide]",6.42e-08
86.8,98.6,> 20,69.2,"CCc1cccc(OC)c1S(=O)(=O)NC(=O)c1cc2ccc(N(C)C)cc2o1 [Example 147, 6-(Dimethylamino)-N-(2-ethyl-6-methoxybenzene-1-sulfonyl)-1-benzofuran-2-carboxamide]",7.83e-08
121,104,> 20,68,"COc1ccc(Br)cc1S(=O)(=O)NC(=O)c1cc2ccc(N(C)C)cc2o1 [Example 148, N-(5-Bromo-2-methoxybenzene-1-sulfonyl)-6-(dimethylamino)-1-benzofuran-2-carboxamide]",1.28e-07
138,123,> 20,379,"COc1ccc(Cl)cc1S(=O)(=O)NC(=O)c1cc2ccc(N(C)C)cc2o1 [Example 149, N-(5-chloro-2-methoxybenzene-1-sulfonyl)-6-(dimethylamino)-1-benzofuran-2-carboxamide]",1.74e-07
15.9,8.95,> 20,19.4,"CN(C)c1ccc2cc(C(=O)NS(=O)(=O)c3cc(C(C)(C)C)ccc3OCc3ccccc3)oc2c1 [Example 179, N-[(2-(Benzyloxy)-5-(tert-butyl)phenyl)sulfonyl]-6-(dimethylamino)benzofuran-2-carboxamide]",6.79e-08
22.9,4.36,> 20,21.3,"CN(C)c1ccc2cc(C(=O)NS(=O)(=O)c3cc(C(C)(C)C)ccc3OCC3CC3)oc2c1 [Example 180, N-((5-(tert-butyl)-2-(cyclopropylmethoxy)phenyl)sulfonyl)-6-(dimethylamino)benzofuran-2-carboxamide]",3.77e-08
30.1,11.8,> 20,43.5,"CN(C)c1ccc2cc(C(=O)NS(=O)(=O)c3cc(C(C)(C)C)ccc3OCC(F)(F)F)oc2c1 [Example 181, N-[(5-(tert-butyl)-2-(2,2,2-trifluoroethoxy)phenyl)sulfonyl]-6-(dimethylamino)benzofuran-2-carboxamide]",9.93e-08
